From patent US20090088380A1, “GHRH ANALOGS AND THERAPEUTIC USES THEREOF” (priority 2007, published 2009)
Non-standard residues stand in square brackets, D forms with d. Residues, ends and D or L forms follow the SMILES beside them.

Legend:
[1] = In vitro proteolysis assay in rat serum; format: in vitro ADME
Description: Proteolysis was stopped by adding 800 μl of ice-cold stop buffer (potassium-phosphate buffer, acidified to pH 0.8 with trifluoroacetic acid (TFA) and boiling 5 min (rat serum only). After centrifugation (12000 g, 5 min, 4° C.) (rat serum only), serum-peptide mixtures were passed through a conditioned Sep-Pak C-18 cartridge to extract native GHRH or a GHRH analog residual concentrations from serum proteins. The native GHRH or the analog was eluted in 2 ml of 50% acetonitrile-0.01% TFA/50% 0.01% aqueous TFA. 200 μl of extracted peptide, representing 1 μg of GHRH or analog at time 0, was quantified by analytical HPLC, using one μ-Bondapak C18 column (10 μm particle size, 0.39×15 cm) (rat serum) or two C18 columns in series (human serum and plasma) and a binary solvent system composed of NaClO4 0.01 M, pH 2.5 and acetonitrile. A linear gradient from 30 to 60% acetonitrile over 45 min (rat serum) or 30 to 50% (human serum and plasma) was used. Elution of intact peptide was monitored at 214 nm and residual concentration determined by assessment of peak surface areas.

[2] = target: T1, hGHRH(1-44)-NH2 binding sites in rat anterior pituitary (Rattus norvegicus, UniProt Q02644); assay: Relative binding affinity in rat anterior pituitary preparations, [125I-Tyr10]hGHRH(1-44)-NH2 radioligand; conditions: values compared to hGHRH(1-29)-NH2
T1 construct: from tissue; host or cells: anterior pituitary of 2-month old male Sprague Dawley rats
T1 sequence (Q02644 23-423 isoform Q02644-2 limits assumed): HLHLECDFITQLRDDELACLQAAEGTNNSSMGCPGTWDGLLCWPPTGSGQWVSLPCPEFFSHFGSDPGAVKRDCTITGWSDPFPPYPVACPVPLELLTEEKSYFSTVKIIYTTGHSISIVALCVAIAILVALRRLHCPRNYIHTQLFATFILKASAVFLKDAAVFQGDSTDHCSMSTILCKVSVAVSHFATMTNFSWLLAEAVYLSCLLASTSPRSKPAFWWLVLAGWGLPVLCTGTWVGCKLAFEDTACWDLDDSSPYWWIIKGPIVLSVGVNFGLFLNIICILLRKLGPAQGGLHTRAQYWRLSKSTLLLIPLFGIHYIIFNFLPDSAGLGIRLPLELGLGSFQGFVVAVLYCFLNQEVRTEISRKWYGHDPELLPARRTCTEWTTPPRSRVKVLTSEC
Description: Initial selection of a candidate from the original 14 polysubstituted GHRH analogs described in the U.S. Pat. No. 5,854,216 was based upon in vitro data on receptor affinity in 2-month old male Sprague Dawley rat anterior pituitary preparations. The embodiments are based on the affinity of selected GHRH analogs for the human GHRH receptor (hGHRH-R) in baby hamster kidney (BHK) cells transfected with hGHRH-R, and on resistance to proteolysis in rat serum, human plasma or human serum. More precisely, the preferred drug candidates were selected, as compared to hGHRH(1-29)-NH2, for: i-their increased relative binding affinity to hGHRH(1-44)-NH2 binding sites in rat anterior pituitary in vitro as well as to hGHRH-R in BHK-expressing cells in vitro; and ii-their relative resistance to proteolysis in vitro.

[3] = system: malnourished subjects with CKD; assay: Phase II CKD: vital signs; format: in vivo, human; conditions: for Diastolic blood pressure: mean (SD) / Heart rate: mean (SD) / Systolic blood pressure: mean (SD): Safety Analysis Set
Description: Mean systolic blood pressure was lower at Day 28 compared with baseline in the GHRH(1-29)NH2 synthetic analog group but higher compared with baseline in the placebo group (Table 37). […] Similarly, mean diastolic blood pressure was lower at Day 28 compared with baseline in the GHRH(1-29)NH2 synthetic analog group but this was not part of a trend.

[4] = system: antibodies to the GHRH(1-29)NH2 synthetic analog; assay: Phase I/II study: human anti-GHRH antibodies ELISA; format: in vivo; conditions: Day 30 sample, at the dilution tested
Description: On Day 30, an ambulatory control visit took place. Clinical assessments were performed and adverse events were reported. A blood sample was taken to determine the presence of antibodies the GHRH(1-29)NH2 synthetic analog.
Once the volunteers were considered eligible, they were hospitalized for a period of 5 consecutive days. On Day 0 of admission successive samples of blood were taken to perform the basal secretion profile of GH during 24 hours. During 5-day hospitalization period, after the initial blood sampling to determine fasting glucose level, the appropriate dose of the GHRH(1-29)NH2 synthetic analog or placebo was administered and multiple samplings were performed to assess the profile of GH, postprandial glucose level and electrocardiogram after 60 minutes of the application of the GHRH(1-29)NH2 synthetic analog/placebo. Eight hours after drug administration, samples were obtained to determine IGF-1 level, thyroid hormones and routine analysis. After 30 days of admission, all the volunteers returned for new clinical evaluation to record any adverse events that could have occurred from the last day of hospitalization period and to take a blood sample for later determination of anti-GHRH(1-29)NH2 synthetic analog antibodies.
Human anti-GHRH antibodies were measured in ELISA developed LAB Pre-Clinical Research Intl.

[5] = system: malnourished subjects with CKD; assay: Phase II CKD: adverse events; format: in vivo, human; conditions: 28 days
Description: The number and nature of AEs was consistent with subjects with chronic renal failure. Although the number of AEs reported by subjects in the GHRH(1-29)NH2 synthetic analog group was higher than the number reported by subjects in the placebo group (70 vs. 58), there was no clear pattern to distinguish the treatments from each other in safety terms. This might be partly due to the relatively low number of subjects in the study but, overall, the 2 groups were generally balanced with respect to the nature and incidence of AEs.

CC[C@H](C)[C@H](NC(=O)[C@H](C)NC(=O)[C@H](CC(=O)O)NC(=O)[C@@H](C)NC(=O)[C@@H](N)Cc1ccc(O)cc1)C(=O)N[C@@H](Cc1ccccc1)C(=O)N[C@H](C(=O)N[C@@H](CC(N)=O)C(=O)N[C@@H](CO)C(=O)N[C@H](Cc1ccc(O)cc1)C(=O)N[C@@H](CCCNC(=N)N)C(=O)N[C@@H](CCCCN)C(=O)N[C@H](C(=O)N[C@@H](CC(C)C)C(=O)N[C@H](C)C(=O)N[C@@H](CCC(N)=O)C(=O)N[C@@H](CC(C)C)C(=O)N[C@@H](CO)C(=O)N[C@@H](C)C(=O)N[C@@H](CCCNC(=N)N)C(=O)N[C@@H](CCCCN)C(=O)N[C@@H](CCCCN)C(=O)N[C@@H](CC(C)C)C(=O)N[C@@H](CCC(N)=O)C(=O)N[C@@H](CC(=O)O)C(=O)N[C@H](C(=O)N[C@@H](CCSC)C(=O)N[C@@H](CO)C(=O)N[C@@H](CCCNC(=N)N)C(N)=O)[C@@H](C)CC)C(C)C)[C@@H](C)O [GHRH analog #5, [D-Ala^2, D-Tyr^10, D-Ala^15, Lys^22] hGHRH(1-29)-NH2] (H-Y[dA]DAIFTNS[dY]RKVL[dA]QLSARKKLQDIMSR-NH2)
Relative resistance to proteolysis in vitro ([1]; compared to hGHRH(1-29)-NH2): 3.13 | Residual concentration (% of initial concentration) ([1]; incubation 0 min): 100 ± 0 % of initial concentration | Relative binding affinity in rat anterior pituitary [2]: 1.04 ± 0.40 | Mean systolic blood pressure ([3]; Day 7): 136.4 mmHg | Mean systolic blood pressure ([3]; Day 14): 139.9 mmHg | Mean systolic blood pressure ([3]; Day 21): 143.1 mmHg | Diastolic blood pressure: mean (SD) ([3]; Baseline): 82.7 (10.9) mmHg | Heart rate: mean (SD) ([3]; Baseline): 77.7 (11.1) bpm | Systolic blood pressure: mean (SD) ([3]; Baseline): 144.8 (16.0) mmHg | Diastolic blood pressure: mean (SD) ([3]; Day 28): 76.7 (8.1) mmHg | Heart rate: mean (SD) ([3]; Day 28): 76.4 (9.8) bpm | Systolic blood pressure: mean (SD) ([3]; Day 28): 128.3 (16.5) mmHg | Mean systolic blood pressure ([3]; screening): 142.0 mmHg | Detectable antibodies to the GHRH(1-29)NH2 synthetic analog [4]: None of the subject samples tested had detectable antibodies | Number of AEs reported [5]: 70
